Measurements: patent publication US20110152091A1, “Herbicidal Compositions Comprising Flufenacet” (BAYER CROPSCIENCE AG, priority 2009, published 2011)

How the values were obtained:
Format in all cases: in vivo
[1] = tested on: Poa annua (POAAN); test: Greenhouse trial: PE soil application vs incorporation into the soil (test methods 1, 3 and 4); details: g of AS/ha: A 75, B 60, C 70, mixture 75 + 60 + 70
Method: (§1) In the standard design of the test, seeds of various broad-leaved weed and weed grass biotypes (origins) were sown in a 8-13 cm diameter pot filled with natural soil of a standard field soil (loamy silt; non-sterile) and covered with a covering soil layer of about 1 cm. The pots were then cultivated in a greenhouse (12-16 h of light, temperature day 20-22° C., night 15-18° C.) until the time of application. The pots were treated on a laboratory track sprayer with spray liquors comprising the compositions according to the invention, mixtures of the prior art or components used individually. Application of the active compounds or active compound combinations formulated as WG, WP, EC or otherwise was carried out at the appropriate growth stages of the plants. The application rate for the spray application was 100-600 l of water/ha. After the treatment, the plants were returned to the greenhouses.
(§2) About 3 weeks after the application, the soil action or/and foliar action was assessed visually according to a scale of 0-100% in comparison to an untreated comparative group: 0%=no noticeable effect compared to the untreated comparative group; 100%=full effect compared to the untreated comparative group.
(§3) (notes: the term “seeds” also includes vegetative propagation forms such as, for example, rhizome pieces; abbreviations used: h light=hours of illumination, g of AS/ha=gram of active substance per hectare, l/ha=liter per hectare, S=sensitive, R=resistant) • 1. Pre-emergence action against weeds: seeds of various broad-leaved weed and weed grass biotypes (origins) were sown in a 8-13 cm diameter pot filled with natural soil of a standard field soil (loamy silt; non-sterile) and covered with a covering soil layer of about 1 cm. The pots were then cultivated in a greenhouse (12-16 h of light, temperature day 20-22° C., night 15-18° C.) until the time of application. The pots were treated at the BBCH stage 00-10 of the seeds/plants on a laboratory track sprayer with spray liquors comprising the compositions according to the invention, mixtures or components used individually, as WG, WP, EC or other formulations. The application rate for the spray application was 100-600 l of water/ha. After the treatment, the plants were returned to the greenhouses and, when required, treated with fertilizer and watered. • 2. Post-emergence action against weeds: seeds of various broad-leaved weed and weed grass biotypes (origins) were sown in a 8-13 cm diameter pot filled with natural soil of a standard field soil (loamy silt; non-sterile) and covered with a covering soil layer of about 1 cm. The pots were then cultivated in a greenhouse (12-16 h of light, temperature day 20-22° C., night 15-18° C.) until the time of application. The pots were treated at various BBCH stages between 11-25 of the seeds/plants, i.e. generally between two to three weeks after the start of the cultivation, on a laboratory track sprayer with spray liquors comprising the compositions according to the invention, mixtures or components used individually, as WG, WP, EC or other formulations. The application rate for the spray application was 100-600 l of water/ha. After the treatment, the plants were returned to the greenhouses and, when required, treated with fertilizer and watered. • 3. Pre-emergence action against weeds with and without incorporation of active compound: seeds of various broad-leaved weed and weed grass biotypes (origins) were sown in a 8-13 cm diameter pot filled with natural soil of a standard field soil (loamy silt; non-sterile). […]

[2] = tested on: Stellaria media (STEME); test: as above; details: g of AS/ha: A 75, B 60, C 70, mixture 75 + 60 + 70
Method: as §1, §2, §3

[3] = tested on: Triticum aestivum, winter wheat (TRZAW); test: Greenhouse trial: PE soil application vs incorporation into the soil, crop plant (test methods 1, 3 and 4); details: g of AS/ha: A 75, B 60, C 70, mixture 75 + 60 + 70
Method: as §1, §2, §3

[4] = tested on: Apera Spica-venti (APESV); test: Greenhouse trial: PO application (test methods 2 and 5); details: g of AS/ha: A 240, B 120, C 140, mixture 240 + 120 + 140
Method: as §1
as §2, with “group. […]” for “group.”

[5] = tested on: Hordeum vulgare, summer barley (HORVS); test: Greenhouse trial: PO application, crop plant (test methods 2 and 5); details: g of AS/ha: A 240, B 120, C 140, mixture 240 + 120 + 140
Method: as §1, §2
(notes: the term “seeds” also includes vegetative propagation forms such as, for example, rhizome pieces; abbreviations used: h light=hours of illumination, g of AS/ha=gram of active substance per hectare, l/ha=liter per hectare, S=sensitive, R=resistant) • 1. Pre-emergence action against weeds: seeds of various broad-leaved weed and weed grass biotypes (origins) were sown in a 8-13 cm diameter pot filled with natural soil of a standard field soil (loamy silt; non-sterile) and covered with a covering soil layer of about 1 cm. The pots were then cultivated in a greenhouse (12-16 h of light, temperature day 20-22° C., night 15-18° C.) until the time of application. […]

[6] = tested on: Avena fatua (AVEFA); test: Greenhouse trial: pre-sowing method vs PE application (test method 6); details: g of AS/ha: A 90, B 90, C 140, mixture 90 + 90 + 140
Method: as §1, §2, §3

[7] = tested on: Lolium perenne (LOLPE); test: as above; details: g of AS/ha: A 90, B 90, C 140, mixture 90 + 90 + 140
Method: as §1, §2, §3

[8] = tested on: Triticum aestivum, winter wheat (TRZAW); test: Greenhouse trial: pre-sowing method vs PE application, crop plant (test method 6); details: g of AS/ha: A 90, B 90, C 140, mixture 90 + 90 + 140
Method: as §1, §2, §3

[9] = tested on: Matricaria chamomilla (MATCH); test: Greenhouse trial: different soil types (test method 7); details: g of AS/ha: A 90, B 90, C 140, mixture 90 + 90 + 140
Method: as §1, §2, §3

[10] = tested on: Stellaria media (STEME); test: as above; details: g of AS/ha: A 90, B 90, C 140, mixture 90 + 90 + 140
Method: as §1, §2, §3

[11] = tested on: Hordeum vulgare, summer barley (HORVS); test: Greenhouse trial: different soil types, crop plant (test method 7); details: g of AS/ha: A 90, B 90, C 140, mixture 90 + 90 + 140
Method: as §1, §2, §3

[12] = tested on: Hordeum vulgare, summer barley (HORVS); test: Greenhouse trial: different sowing depths on PE application, crop plant (test method 9); details: g of AS/ha: A 90, B 90, C 140, mixture 90 + 90 + 140; for activity HORVS 5 mm (visual, scale 0-100%): Sowing depth 5 mm; for activity HORVS 20 mm (visual, scale 0-100%): Sowing depth 20 mm
Method: as §1, §2, §3

[13] = tested on: Hordeum vulgare, summer barley (HORVS); test: Greenhouse trial: different soil pH values on PE application, crop plant (test method 11); details: for activity HORVS pH 7.4 (visual, scale 0-100%): soil pH 7.4, g of AS/ha: A 90, B 90, C 140, mixture 90 + 90 + 140; for activity HORVS pH 8.4 (visual, scale 0-100%): soil pH 8.4, g of AS/ha: A 90, B 90, C 140, mixture 90 + 90 + 140
Method: as §1, §2, §3

[14] = tested on: Avena fatua (AVEFA); test: Greenhouse trial: different soil pH values on PE application (test method 11); details: for activity AVEFA pH 7.4 (visual, scale 0-100%): soil pH 7.4, g of AS/ha: A 90, B 90, C 140, mixture 90 + 90 + 140; for activity AVEFA pH 8.4 (visual, scale 0-100%): soil pH 8.4, g of AS/ha: A 90, B 90, C 140, mixture 90 + 90 + 140
Method: as §1, §2, §3

[15] = tested on: Lolium species (LOLSS), sensitive and resistant biotypes; test: Greenhouse trial: resistant biotypes following PE application (test method 8); details: g of AS/ha: A 90, B 90, C 140, mixture 90 + 90 + 140, iodosulfuron 10
Method: as §1
as §2, with “group. […]” for “group.”

[16] = tested on: Matricaria chamomilla (MATCH); test: Greenhouse trial: different sowing depths on PE application (test method 9); details: g of AS/ha: A 90, B 90, C 140, mixture 90 + 90 + 140
Method: as §1
as §2, with “group. […]” for “group.”

[17] = Application 7 days prior to sowing

Structure (SMILES) | activity POAAN (visual, scale 0-100%) ([1]; Incorporation into the soil) | activity POAAN (visual, scale 0-100%) ([1]; PE application) | activity STEME (visual, scale 0-100%) ([2]; PE application) | activity TRZAW (visual, scale 0-100%) ([3]; Incorporation into the soil) | activity TRZAW (visual, scale 0-100%) ([3]; PE application) | activity APESV (visual, scale 0-100%) [4] | activity HORVS (visual, scale 0-100%) [5] | activity LOLPE (visual, scale 0-100%) ([7]; PE application) | activity TRZAW (visual, scale 0-100%) [8, 17] | activity TRZAW (visual, scale 0-100%) ([8]; PE application) | activity STEME IU soil (visual, scale 0-100%) [10] | activity STEME IU/EC73 soil (visual, scale 0-100%) [10] | activity HORVS IU soil (visual, scale 0-100%) [11] | activity HORVS IU/EC73 soil (visual, scale 0-100%) [11] | activity HORVS 5 mm (visual, scale 0-100%) [12] | activity HORVS 20 mm (visual, scale 0-100%) [12] | activity HORVS pH 7.4 (visual, scale 0-100%) [13] | activity HORVS pH 8.4 (visual, scale 0-100%) [13] | activity AVEFA pH 7.4 (visual, scale 0-100%) [14] | activity AVEFA pH 8.4 (visual, scale 0-100%) [14] | further results
CC(C)N(C(=O)COc1nnc(C(F)(F)F)s1)c1ccc(F)cc1 [(A) flufenacet, N-(4-fluorophenyl)-N-(1-methylethyl)-2-[[5-(trifluoromethyl)-1,3,4-thiadiazol-2-yl]oxy]acetamide] | 90% | 65% | 0% | 60% | 20% | 65% | 60% | 90% | 60% | 30% | 0% | 0% | 10% | 0% | 30% | 20% | 10% | 10% | 80% | 55% | activity AVEFA (visual, scale 0-100%) ([6]; PE application): 80%; activity MATCH IU soil (visual, scale 0-100%) [9]: 28%
O=C(Nc1ccc(F)cc1F)c1cccnc1Oc1cccc(C(F)(F)F)c1 [(B) diflufenican, N-(2,4-difluorophenyl)-2-[3-(trifluoromethyl)phenoxy]-3-pyridinecarboxamide] | 75% | – | – | 20% | 10% | – | 5% | 60% | 10% | 10% | 95% | 38% | 0% | 0% | 30% | 5% | 0% | 0% | 0% | 30% | activity LOLPE (visual, scale 0-100%) [7, 17]: 0%
CSc1nnc(C(C)(C)C)c(=O)n1N [(C) metribuzin, 4-amino-6-(1,1-dimethylethyl)-3-(methylthio)-1,2,4-triazin-5(4H)-one] | 15% | 0% | 75% | 55% | 30% | 79% | 70% | 50% | 0% | 55% | 75% | 5% | 0% | 0% | 70% | 30% | 40% | 50% | 90% | 90% | activity STEME (visual, scale 0-100%) ([2]; Incorporation into the soil): 0%; activity AVEFA (visual, scale 0-100%) [6, 17]: 0%; activity AVEFA (visual, scale 0-100%) ([6]; PE application): 10%; activity LOLPE (visual, scale 0-100%) [7, 17]: 10%; activity MATCH IU soil (visual, scale 0-100%) [9]: 0%; activity MATCH IU/EC73 soil (visual, scale 0-100%) ([9]; IU/EC73 soil): 15%; activity LOLSS resistant (visual, scale 0-100%) ([15]; resistant biotype): 70%; activity LOLSS sensitive (visual, scale 0-100%) ([15]; sensitive biotype): 70%; activity MATCH 5 mm (visual, scale 0-100%) ([16]; Sowing depth 5 mm): 100%; activity MATCH 20 mm (visual, scale 0-100%) ([16]; Sowing depth 20 mm): 70%
